Each structure is given as a SMILES string.

Experiment [1] has as its system HCT116 (colorectal cancer). In words: In vitro cell proliferation assay (CCK-8), HCT116. The format is cell-based. The conditions noted are these: Homo sapiens, HCT-116, HCT116 cells, 72 hours. How it is done:
(§1) In Vitro Cell Proliferation Assay:
(§2) Cells were seeded on 96-well plates at 5×10^3 cells per well and precultured for 24 hours. The cells were treated with serial diluted compounds and cultured for 72 hours. Then all media was discarded and after that, 100 μL 1:10 (v/v) Cell Counting Kit-8 (CCK-8)-culture media solution was added to the wells. Plate was developed for 2 hours in an incubator, and the absorbance was measured at 450 nm wavelengths with SpectraMAX190 (MDS, Sunnyvale, Calif.). The inhibition rate (IR) of the tested compounds was determined with following formula: IR (%)=(ODDMSO−ODcompound)/ODDMSO×100%. The concentration corresponding to 50% IR (IC50) was determined with plot curve of IR against tested compound concentrations with SoftMax Pro.

The target in the next experiment is T1, CDK8/Cyclin C (Homo sapiens, UniProt P49336).
T1 construct: purchased Invitrogen PV4402
T1 sequence (P49336 whole entry): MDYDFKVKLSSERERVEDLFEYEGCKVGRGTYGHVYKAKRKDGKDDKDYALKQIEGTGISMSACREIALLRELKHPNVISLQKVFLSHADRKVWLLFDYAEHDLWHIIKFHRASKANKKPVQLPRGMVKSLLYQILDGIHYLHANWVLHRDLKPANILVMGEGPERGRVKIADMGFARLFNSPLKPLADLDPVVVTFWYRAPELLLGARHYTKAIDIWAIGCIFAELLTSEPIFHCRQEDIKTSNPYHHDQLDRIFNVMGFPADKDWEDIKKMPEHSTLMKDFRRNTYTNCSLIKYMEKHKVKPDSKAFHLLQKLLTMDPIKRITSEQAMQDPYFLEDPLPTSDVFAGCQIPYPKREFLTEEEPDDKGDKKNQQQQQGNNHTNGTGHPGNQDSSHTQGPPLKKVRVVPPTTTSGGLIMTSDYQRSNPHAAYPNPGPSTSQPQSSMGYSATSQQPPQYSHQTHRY
T1 sequence (P24863 whole entry partner): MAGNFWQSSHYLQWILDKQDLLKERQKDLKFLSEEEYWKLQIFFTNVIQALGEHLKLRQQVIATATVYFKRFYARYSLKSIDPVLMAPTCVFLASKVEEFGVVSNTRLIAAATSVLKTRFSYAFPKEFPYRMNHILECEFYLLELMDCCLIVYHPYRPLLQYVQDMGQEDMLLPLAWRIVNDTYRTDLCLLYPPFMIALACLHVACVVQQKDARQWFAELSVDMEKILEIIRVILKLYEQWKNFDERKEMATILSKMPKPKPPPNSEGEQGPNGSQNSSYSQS
In words: CDK8/Cyclin C LANCE TR-FRET kinase assay. The format is biochemical. The conditions noted are these: CDK8/Cyclin C 10 nM, ATP 24 μM, Ulight-GS peptide 80 nM, 37° C. 30 mins. From the text: CDK8/Cyclin C LANCE TR-FRET Kinase Assay:
The biological activity of the compounds of the invention can be determined using the assay described below.
CDK8/Cyclin C protein was obtained from Invitrogen, cat #PV4402. ULight-Glycogen Synthase (Ulight-GS) peptide with sequence PASVPPSPSLSRHSSPHQ(pS)ED, and Europium-anti-phospho Glycogen Synthase (Ser641) [Eu-anti-P-GS (Ser641)] were obtained from Perkin Elmer, cat #TRF0131-M and cat #TRF0220. Adenosine-5′-triphosphate (ATP) was obtained from Invitrogen, cat #PV3227.
A mixture of (1) a compound of formula I, (2) substrate [Ulight-GS peptide (80 nM) and ATP (24 μM)], and (3) CDK8/Cyclin C (10 nM) in reaction buffer (50 mM Hepes, pH7.0, 10 mM MgCl2, 1 mM EGTA, 0.2 mg/mL BSA, 0.8 mM DTT) were incubated at 37° C. for 30 mins. Then, [Eu-anti-P-GS (Ser641)] (1.5 nM) was added. Following incubation at room temperature for 30 mins, the TR-FRET signals were detected using Envision reader (Ex 340 nm, Em 615 nm and 665 nm) from Perkin Elmer. The reactivity in percentage of inhibition or dose response was analyzed with GraphPad Prism 5 (GraphPad Software).

The subject of another experiment is AGS (gastric cancer). In words: In vitro cell proliferation assay (CCK-8), AGS. In kind it is cell-based. To be noted: Homo sapiens, AGS cells, 72 hours. As to the method:
as §1, §2

Experiment [2] relates to SW-837 (colorectal cancer). In words: In vitro cell proliferation assay (CCK-8), SW-837. To be noted: Homo sapiens, SW837, SW-837 cells, 72 hours. The format is cell-based. How it is done:
as §1, §2

What is called IC50 is the midpoint of a concentration-inhibition curve. The low end stands for greater potency in that assay, the high end for weaker potency in that assay. Regarding `OC[C@H](Nc1cncc(-c2ccc3[nH]ncc3c2)c1)c1ccccc1` [Example 16, (R)-2-[5-(1H-Indazol-5-yl)-pyridin-3-ylamino]-2-phenyl-ethanol], the IC50 in experiment [1] worked out at 0.037 µM; against CDK8/Cyclin C, 0.2 nM; with AGS (gastric cancer) it was 0.033 µM; in experiment [2] it was 0.091 µM. For `O=C1Cc2cc(-c3cncc(N[C@@H](CO)c4ccccc4)c3)ccc2N1` [Example 1, 5-[5-((R)-2-Hydroxy-1-phenyl-ethylamino)-pyridin-3-yl]-1,3-dihydro-indol-2-one], in that order: 0.66 µM, 3.5 nM, 0.65 µM and 2.3 µM. Consider `Cc1n[nH]c2ccc(-c3cncc(N[C@@H](CNC(=O)c4ccccc4)c4ccccc4)c3)cc12` [Example 58, N-{(R)-2-[5-(3-Methyl-1H-indazol-5-yl)-pyridin-3-ylamino]-2-phenyl-ethyl}-benzamide], for which 6 nM corresponded to half-maximal inhibition on CDK8/Cyclin C (IC50). The same measure, in the same setting: then `CC1(C)C(=O)Nc2ccc(-c3cncc(NC(C(N)=O)c4ccccc4)c3)cc21` (centres unmarked) [Example 32, 2-[5-(3,3-Dimethyl-2-oxo-2,3-dihydro-1H-indol-5-yl)-pyridin-3-ylamino]-2-phenyl-acetamide], with 813 nM; and `OC[C@H](Nc1cncc(-c2ccc3c(c2)OCCO3)c1)c1ccccc1` [Example 15, (R)-2-[5-(2,3-Dihydro-benzo[1,4]dioxin-6-yl)-pyridin-3-ylamino]-2-phenyl-ethanol], with 350 nM; and `O=C1Cc2cc(-c3cncc(N[C@@H](CO)c4ccccc4)c3)c(F)cc2N1` [Example 10, 6-Fluoro-5-[5-((R)-2-hydroxy-1-phenyl-ethylamino)-pyridin-3-yl]-1,3-dihydro-indol-2-one], with 0.5 nM. Take `O=c1[nH]c2ccc(-c3cncc(N[C@@H](CO)c4ccccc4)c3)cc2o1` [Example 12, 6-[5-((R)-2-Hydroxy-1-phenyl-ethylamino)-pyridin-3-yl]-3H-benzooxazol-2-one]: the IC50 against CDK8/Cyclin C is 3.8 nM.

`O=C1Nc2ccc(-c3cncc(N[C@@H](CO)c4ccccc4)c3)cc2C1(F)F` [Example 8, 3,3-Difluoro-5-[5-((R)-2-hydroxy-1-phenyl-ethylamino)-pyridin-3-yl]-1,3-dihydro-indol-2-one] registered an IC50 against CDK8/Cyclin C of 37.6 nM. For the molecule `OC[C@H](Nc1cncc(-c2ccc3c(c2)OCO3)c1)c1ccccc1` [Example 14, (R)-2-(5-Benzo[1,3]dioxol-5-yl-pyridin-3-ylamino)-2-phenyl-ethanol], at CDK8/Cyclin C, the IC50 came out at 46.3 nM.

On to `OC[C@H](Nc1cncc(-c2ccc3[nH]nc(F)c3c2)c1)c1ccccc1` [Example 19], for which the IC50 against CDK8/Cyclin C amounted to 1.8 nM. As to `OCCNC[C@H](Nc1cncc(-c2ccc3[nH]nc(F)c3c2)c1)c1ccccc1` [Example 47, 2-{(R)-2-[5-(3-Fluoro-1H-indazol-5-yl)-pyridin-3-ylamino]-2-phenyl-ethylamino}-ethanol], on CDK8/Cyclin C, it took 15 nM to reach half-maximal inhibition (IC50).

`NC(=O)C(Nc1cncc(-c2ccc3[nH]nc(F)c3c2)c1)c1ccccc1` (centres unmarked) [Example 42, 2-[5-(3-Fluoro-1H-indazol-5-yl)-pyridin-3-ylamino]-2-phenyl-acetamide] displayed an IC50 against CDK8/Cyclin C of 3.5 nM.

Consider `O=C(CO)NC[C@H](Nc1cncc(-c2ccc3[nH]nc(F)c3c2)c1)c1ccccc1` [Example 46, N-{(R)-2-[5-(3-Fluoro-1H-indazol-5-yl)-pyridin-3-ylamino]-2-phenyl-ethyl}-2-hydroxy-acetamide], for which, at CDK8/Cyclin C, the IC50 was found to be 2.4 nM. Consider `Cc1n[nH]c2ccc(-c3cncc(N[C@@H](CNS(C)(=O)=O)c4ccccc4)c3)cc12` [Example 52, N-{(R)-2-[5-(3-Methyl-1H-indazol-5-yl)-pyridin-3-ylamino]-2-phenyl-ethyl}-methanesulfonamide], for which inhibition against CDK8/Cyclin C was half-maximal at 0.8 nM (IC50). Still for that read-out and setting: then `CC(=O)NC[C@H](Nc1cncc(-c2ccc3c(c2)CC(=O)N3)c1)c1ccccc1` [Example 30, N-{(R)-2-[5-(2-Oxo-2,3-dihydro-1H-indol-5-yl)-pyridin-3-ylamino]-2-phenyl-ethyl}-acetamide], with 22.7 nM; and `NC(=O)C(Nc1cncc(-c2ccc3c(c2)CC(=O)N3)c1)c1ccccc1` (centres unmarked) [Example 29, 2-[5-(2-Oxo-2,3-dihydro-1H-indol-5-yl)-pyridin-3-ylamino]-2-phenyl-acetamide], with 67.2 nM; and `O=C1Cc2cc(-c3cncc(N[C@@H](CO)c4ccccc4Cl)c3)ccc2N1` [Example 3, 5-{5-[(R)-1-(2-Chloro-phenyl)-2-hydroxy-ethylamino]-pyridin-3-yl}-1,3-dihydro-indol-2-one], with 2.1 nM. On the same count and under the same terms, next, `Cc1n[nH]c2ccc(-c3cncc(N[C@@H](CO)c4ccccc4)c3)cc12` [Example 20, (R)-2-[5-(3-Methyl-1H-indazol-5-yl)-pyridin-3-ylamino]-2-phenyl-ethanol]: 0.5 nM; `CS(=O)(=O)c1n[nH]c2ccc(-c3cncc(N[C@@H](CO)c4ccccc4)c3)cc12` [Example 23, (R)-2-[5-(3-Methanesulfonyl-1H-indazol-5-yl)-pyridin-3-ylamino]-2-phenyl-ethanol]: 3.2 nM. `O=C1Cc2nc(-c3cncc(N[C@@H](CO)c4ccccc4)c3)ccc2N1` [Example 9, 5-[5-((R)-2-Hydroxy-1-phenyl-ethylamino)-pyridin-3-yl]-1,3-dihydro-pyrrolo[3,2-b]pyridin-2-one]: the IC50 on CDK8/Cyclin C was 81.3 nM. For `NC(=O)C(Nc1cncc(-c2ccc3c(c2)CCC(=O)N3)c1)c1ccccc1` (centres unmarked) [Example 33, 2-[5-(2-Oxo-1,2,3,4-tetrahydro-quinolin-6-yl)-pyridin-3-ylamino]-2-phenyl-acetamide], on CDK8/Cyclin C, inhibition was half-maximal at 1890 nM (IC50). The molecule `O=c1[nH]c2ccc(-c3cncc(N[C@@H](CO)c4ccccc4)c3)cc2[nH]1` [Example 5, 5-[5-((R)-2-Hydroxy-1-phenyl-ethylamino)-pyridin-3-yl]-1,3-dihydro-benzoimidazol-2-one] showed an IC50 against CDK8/Cyclin C of 1.1 nM. On CDK8/Cyclin C, `CCc1n[nH]c2ccc(-c3cncc(N[C@@H](CO)c4ccccc4)c3)cc12` [Example 21, (R)-2-[5-(3-Ethyl-1H-indazol-5-yl)-pyridin-3-ylamino]-2-phenyl-ethanol] gave an IC50 of 1.5 nM. With `O=C1Nc2ccc(-c3cncc(N[C@@H](CO)c4ccccc4)c3)cc2C12CC2` [Example 6, (R)-5′-(5-((2-Hydroxy-1-phenylethyl)amino)pyridin-3-yl)-spiro[cyclopropane-1,3′-indolin]-2′-one], the IC50 against CDK8/Cyclin C was 2.9 nM. Still for that read-out and setting: then `CC(C)C(=O)NC[C@H](Nc1cncc(-c2ccc3[nH]nc(F)c3c2)c1)c1ccccc1` [Example 44, N-{(R)-2-[5-(3-Fluoro-1H-indazol-5-yl)-pyridin-3-ylamino]-2-phenyl-ethyl}-isobutyramide], with 3.1 nM; and `OC[C@H](Nc1cncc(-c2cccc3[nH]ccc23)c1)c1ccccc1` [Example 17, (R)-2-[5-(1H-Indol-4-yl)-pyridin-3-ylamino]-2-phenyl-ethanol], with 191 nM.

On to `COCCNC[C@H](Nc1cncc(-c2ccc3[nH]nc(C)c3c2)c1)c1ccccc1` [Example 55, (R)-N^2-(2-Methoxy-ethyl)-N^1-[5-(3-methyl-1H-indazol-5-yl)-pyridin-3-yl]-1-phenyl-ethane-1,2-diamine], for which the IC50 at CDK8/Cyclin C was found to be 9.5 nM. The molecule `O=C1Cc2cc(-c3cncc(N[C@H](CO)c4ccccc4Cl)c3)ccc2N1` [Example 4, 5-{5-[(S)-1-(2-Chloro-phenyl)-2-hydroxy-ethylamino]-pyridin-3-yl}-1,3-dihydro-indol-2-one] gave an IC50 on CDK8/Cyclin C of 157 nM. As to `CCC(=O)NC[C@H](Nc1cncc(-c2ccc3[nH]nc(F)c3c2)c1)c1ccccc1` [Example 43, N-{(R)-2-[5-(3-Fluoro-1H-indazol-5-yl)-pyridin-3-ylamino]-2-phenyl-ethyl}-propionamide], the IC50 against CDK8/Cyclin C came out at 2.3 nM. With `NC(=O)[C@H](Nc1cncc(-c2ccc3[nH]ncc3c2)c1)c1ccccc1` [Example 38, (R)-2-[5-(1H-Indazol-5-yl)-pyridin-3-ylamino]-2-phenyl-acetamide], the IC50 against CDK8/Cyclin C came to 0.9 nM. Same read-out and setting: next, `NC(=O)C(Nc1cncc(-c2ccc3c(c2)OCO3)c1)c1ccccc1` (centres unmarked) [Example 35, 2-(5-Benzo[1,3]dioxol-5-yl-pyridin-3-ylamino)-2-phenyl-acetamide]: 559 nM; `Cc1n[nH]c2ccc(-c3cncc(N[C@H](C(N)=O)c4ccccc4)c3)cc12` [Example 49, (S)-2-[5-(3-Methyl-1H-indazol-5-yl)-pyridin-3-ylamino]-2-phenyl-acetamide]: 4.2 nM.
